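How tested: cells in 96-well plates exposed to compound for 48 hours at five concentrations. GI50: concentration for 50% inhibition of growth. TGI marks complete inhibition of growth.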
Experiments:
Experiment in all cases: growth of human tumour cells (NCI), 48 h
SF-268 CNS = system: SF-268 CNS
SR leukemia = system: SR leukemia
OVCAR-8 ovarian = system: OVCAR-8 ovarian
786-0 renal = system: 786-0 renal
CAKI-1 renal = system: CAKI-1 renal
U251 CNS = system: U251 CNS
HOP-92 NSCLC = system: HOP-92 NSCLC
SF-295 CNS = system: SF-295 CNS
EKVX NSCLC = system: EKVX NSCLC
OVCAR-4 ovarian = system: OVCAR-4 ovarian

Structure (SMILES)	GI50 (SF-268 CNS) [µM]	TGI (SF-268 CNS) [µM]	GI50 (SR leukemia) [µM]	TGI (SR leukemia) [µM]	GI50 (OVCAR-8 ovarian) [µM]	TGI (OVCAR-8 ovarian) [µM]	GI50 (786-0 renal) [µM]	TGI (786-0 renal) [µM]	GI50 (CAKI-1 renal) [µM]	TGI (CAKI-1 renal) [µM]	GI50 (U251 CNS) [µM]	TGI (U251 CNS) [µM]	GI50 (HOP-92 NSCLC) [µM]	TGI (HOP-92 NSCLC) [µM]	GI50 (SF-295 CNS) [µM]	TGI (SF-295 CNS) [µM]	GI50 (EKVX NSCLC) [µM]	TGI (EKVX NSCLC) [µM]	GI50 (OVCAR-4 ovarian) [µM]	TGI (OVCAR-4 ovarian) [µM]
Cc1cccc2c(=O)c3c(sc12)c(NCCN)nc1ccccc13	1.18	3.88	0.719	1.85	0.885	1.98	0.917	1.69	0.851	2.85	0.84	1.59	0.691	2.45	0.886	1.7	0.815	1.71	0.935	2.16
O=C1C=CC(=O)N1CCCCCCCCCCN1C(=O)C=CC1=O	15.8	30.4	6.88	41.2	13.9	44	16.2	30.4	9.19	25.2	17	37.8	20.8	37	23.5	74.4	19.4	39.2	8.38	24.8
Cc1cc(NC(=O)C(=O)Cc2nc3ccccc3s2)ccc1Cl	–	> 100	–	> 100	–	> 100	–	> 100	–	> 100	–	> 100	–	> 100	–	> 100	–	> 100	–	> 100
Clc1ccc(CCn2cncn2)c(Cl)c1	–	> 100	–	> 100	–	> 100	–	> 100	–	> 100	–	> 100	–	> 100	–	> 100	–	> 100	–	> 100
N=C1N=Nc2nc(C3(c4nc5n(c4O)C(=N)N=N5)Cc4ccccc4C3=O)c(O)n21 (centres undefined)	–	> 100	–	> 100	–	> 100	–	> 100	–	> 100	> 100	> 100	–	> 100	–	> 100	–	> 100	> 100	> 100
Cn1c(-c2ccccc2)c/c(=N\NS(C)(=O)=O)c2cc(S(=O)(=O)O)ccc21	–	> 100	–	> 100	–	> 100	–	> 100	–	> 100	–	> 100	–	> 100	–	> 100	–	> 100	–	> 100
COc1ccc(C2SC(C)C(=O)N2NC(=O)C(O)c2ccccc2)cc1 (centres undefined)	> 100	> 100	63	> 100	> 100	> 100	> 100	> 100	> 100	> 100	> 100	> 100	> 100	> 100	> 100	> 100	> 100	> 100	> 100	> 100
N#Cc1ccccc1/C=N/O	–	> 100	–	> 100	–	> 100	–	> 100	–	> 100	–	> 100	–	> 100	–	> 100	–	> 100	–	> 100
NS(=O)(=O)c1ccc(NCc2cnc3ccccc3c2)cc1	–	> 100	–	> 100	–	> 100	–	> 100	–	> 100	–	> 100	–	> 100	–	> 100	–	> 100	–	> 100
COC(=O)/C(Br)=C/c1c[nH]c2ccc(Br)cc12	15.6	60.3	26.9	> 100	18.2	34.3	13	35.9	12.9	29.1	10.2	28.6	2.13	15.7	12.4	27.3	12.3	29.7	10.7	56.8
O=c1[nH]c(C2CCCCC2)nc2cc(Cl)ccc12	–	> 100	–	> 100	–	> 100	–	> 100	–	> 100	–	> 100	–	94.3	–	> 100	–	> 100	–	> 100
CN(C)CCOc1cccc(NC2=C(Cl)C(=O)C(Nc3cccc(OCCN(C)C)c3)=C(Cl)C2=O)c1	1.7	3.48	0.218	0.783	1.13	2.91	0.49	1.12	1.44	2.81	1.47	2.93	0.184	0.408	2.36	5.92	0.794	2.13	0.17	0.329
COc1cc2c(cc1C)NC(=O)/C2=C/c1c(C)nc2sc(C)cn12	85.3	> 100	22.6	> 100	> 100	> 100	> 100	> 100	52	> 100	> 100	> 100	22.1	> 100	45.2	> 100	49.2	> 100	> 100	> 100
OCCCNC(=S)Nc1ccc(-c2nc3ccccc3s2)cc1	22.5	> 100	14.6	50	33.7	91.9	22.8	55.2	14.3	40.6	29.8	> 100	19.7	82.9	14.8	45	17	83.2	28.1	> 100
O=C(Cc1nc2ccccc2s1)NC12CC3CC(CC(C3)C1)C2	–	> 100	–	> 100	–	> 100	–	> 100	–	> 100	–	> 100	–	> 100	–	> 100	–	> 100	–	> 100
CCN1CCN(Cc2ccc3cc(C(=O)Nc4cc(NC(=O)c5ccc6c(c5)OCCO6)ccc4F)ccc3n2)CC1	0.0742	10	0.0443	1.48	0.0571	12.5	0.0604	13.1	0.018	0.103	0.0464	11.4	0.0555	0.557	0.0475	2.92	0.112	1.79	0.0772	1.91
COC(C(=O)[C@@H](O)[C@@H](C)O)[C@@H]1Cc2cc3cc(O[C@H]4C[C@@H](O[C@H]5C[C@@H](O)[C@H](O)C(C)O5)[C@H](O)C(C)O4)c(C)c(O)c3c(O)c2C(=O)[C@H]1O[C@H]1C[C@@H](O[C@H]2C[C@@H](O[C@H]3C[C@@H](O)[C@@H](O)C(C)O3)[C@@H](O)C(C)O2)[C@H](O)C(C)O1 (some centres undefined)	0.207	> 32.5	0.112	> 32.5	0.514	> 32.5	0.305	> 32.5	5.78	> 32.5	0.121	> 32.5	0.119	2.03	0.196	> 32.5	0.78	> 32.5	0.571	> 32.5
COc1ccc2cc(C(=O)/C=C/c3ccccc3OC)ccc2c1	> 20.6	> 100	0.312	–	2.71	7.34	5.59	21.5	0.862	4.88	4.33	15.6	> 22.6	> 50.4	1.59	7.2	17.5	58.5	18.9	> 100
CSc1ccc2c(c1)C(=O)c1c-2n(CCCN=[N+]=[N-])c(=O)c2cc([N+](=O)[O-])ccc12	1.98	> 100	0.2	5.8	7.97	> 100	1.65	14.6	2.33	> 66.5	1.1	> 100	5.24	> 100	0.553	> 52.1	> 100	> 100	> 100	> 100
Cc1ccccc1C(C#N)/C(=N/NC(=O)C(=O)NN)C(=O)Nc1cccc(C(F)(F)F)c1 (centres undefined)	–	> 100	–	> 100	–	> 100	–	> 100	–	> 100	–	> 100	–	> 100	–	> 100	–	> 100	–	> 100
CCOC(=O)C1=C(N)Oc2cc(OC)ccc2C1c1ccc(F)c(F)c1 (centres undefined)	8.56	23.5	0.533	16.7	3.28	19.2	3.45	16.8	–	–	1.84	14.3	3.54	19.4	1.91	15.5	3.67	17.9	3.37	18.6
CNC(=S)N/N=C(/C)CCC/C(C)=N/NC(=S)NC	–	> 88.7	–	> 100	–	> 100	–	> 100	–	> 100	–	> 100	–	> 100	–	> 100	–	> 100	–	29.2
O=CNc1ccc2c(c1)Cc1cc([N+](=O)[O-])ccc1-2	5.02	> 100	2.17	> 100	4.99	> 100	5.32	> 100	3.29	> 100	2.97	> 100	6.97	> 100	0.981	> 100	0.657	> 100	> 65.5	> 100
C=C1CCC2C(C)(CO)C(O)CCC2(C)C1CC(O)C1=CCOC1=O (centres undefined)	–	> 100	–	65.9	–	> 100	–	71.6	–	> 100	–	50.7	–	> 100	–	> 100	–	> 100	–	> 100
O=C(Nc1cccc2ccccc12)c1cc2ccccc2cc1O	3.47	39.1	2.57	9.73	2.52	8.25	3.43	17.2	1.75	4.52	1.56	4.72	0.969	4.25	1.83	4.32	1.77	6.18	2.69	35.9
Cc1cc2c(=O)cc(-c3ccc(C(=O)O)cc3)oc2c(C(=O)O)c1C	–	–	–	> 100	–	> 100	–	> 100	–	> 100	–	> 100	–	> 100	–	> 100	–	> 100	–	> 100
COc1ccc(OC)c2c3c(ncc12)-c1cc2c(cc1C3)OCO2	–	–	4.22	> 100	9.48	> 100	22.5	> 100	> 100	> 100	0.209	3.31	> 100	> 100	27	> 100	93.4	> 100	> 100	> 100
Cc1ccc(C2CC(c3cccc(Nc4ccncc4)c3)=NN2c2ccc(Cl)cc2)cc1 (centres undefined)	–	–	1.52	3.52	–	–	1.71	3.16	1.51	2.97	1.85	3.64	1.38	2.74	1.79	3.19	1.48	2.88	1.69	3.35
CC(=O)/C=C/c1ccc(N(C)Cc2ccc(C(C)(C)C)cc2)cc1	143	332	137	499	148	516	155	338	–	–	125	268	129	267	162	576	84.4	392	125	330
O=C(/C=C/c1ccc2c(c1)OCO2)c1ccccc(=O)c1O	–	35.9	–	> 100	–	54.2	–	> 100	–	24.1	–	> 100	–	72.9	–	–	–	> 100	–	> 100

Source: PubChem BioAssay (NCI)
